{"source": "patent US5675007A", "about": "(priority 1994, dated 1997)", "key": {"[1]": {"target": "muscarinic receptors ([^3 H]-QNB binding)", "design": "species or system rat (male Hooded Lister)", "details": "rat cerebral cortex; [^3 H]-QNB 0.27 nM; geometric mean; n = 2"}, "[2]": {"assay": "Functional studies in vivo: body tremor", "design": "species or system mouse (male CD1)", "details": "mouse, read-out: Tremor ED50 (dose inducing 50% of the maximum score)", "description": "(§1) Male mice (CD1, Charles River UK, 25-35 g) were used in the in vivo experiments. Animals were housed in groups of 10 and allowed food and water ad libitum. Two hours prior to the experiment the animals were rehoused in groups of 5 and allowed to acclimatize to their new environment. Each group was assigned one dose of test compound.\n(§2) Test compounds or vehicle were administered by either the subcutaneous (sc) or oral (po) routes. Animals were subjectively assessed for signs of salivation and body tremor 15, 30, 45, 60, 90, 120, 150, 180, 240 and 300 minutes post dose, using a scoring system: 0=absent; 1=mild; 2=moderate; 3=severe. Changes in core body temperature, a measure of central activity, were recorded at the same timepoints using a rectal probe (Comark Electronic Thermometer Type 9001 )"}, "[3]": {"target": "muscarinic receptors ([^3 H]-OXO-M binding)", "assay": "Inhibition of [^3 H]-oxotremorine-M ([^3 H]-OXO-M) binding, rat cerebral cortex", "design": "species or system rat (male Hooded Lister)", "details": "[^3 H]-OXO-M 1.88 nM, 37° C., geometric mean, n = 2"}, "[4]": {"assay": "Functional studies in vivo: salivation", "design": "species or system mouse (male CD1)", "details": "mouse, read-out: Salivation ED50 (dose inducing 50% of the maximum score)", "description": "as §1, §2"}, "[5]": {"assay": "Functional studies in vivo: hypothermia (core body temperature)", "design": "species or system mouse (male CD1)", "details": "mouse, 95% CL on next line", "description": "as §1, §2"}}}
{"smiles": "CO/N=C(\\C#N)[C@H]1C[N+]2([O-])CCC1CC2", "note": "[Compound X, [R-(Z)]-α-(methoxyimino)-α-(1-azabicyclo[2.2.2]oct-3-yl)acetonitrile-1-oxide]", "values": [{"measurement": "IC50", "setting": "[1]", "result": 68.7, "unit": "µM"}, {"measurement": "ED50", "setting": "[2]; oral", "result": "> 30", "unit": "mg/kg"}, {"measurement": "ED50", "setting": "[2]; sc, subcutaneous", "result": "> 30", "unit": "mg/kg"}, {"measurement": "IC50", "setting": "[3]", "result": 2.86, "unit": "µM"}, {"measurement": "ED50", "setting": "[4]; oral", "result": "< 0.3", "unit": "mg/kg"}, {"measurement": "ED50", "setting": "[4]; sc, subcutaneous, 95% CL on next line", "result": 2.38, "unit": "mg/kg"}, {"measurement": "Hypothermia ED3° (dose inducing 3° fall in core body temperature)", "setting": "[5]; oral", "result": 5.8, "unit": "mg/kg"}, {"measurement": "Hypothermia ED3° (dose inducing 3° fall in core body temperature)", "setting": "[5]; subcutaneous", "result": 21.3, "unit": "mg/kg"}]}
